Data taken from US8207176B2 (Glaxo Group Limited, priority 2005, dated 2012).

Assays:
[1] = tested on: influx of neutrophils to the lung in LPS-challenged rats; assay: Rat LPS neutrophilia model; assay type: in vivo; settings: intratracheal, LPS aerosol 100 ug/ml 15 min, lavage 4 hours later, in at least one of the range of conditions tested, significant p<0.05, nonsignificant p>0.05
Summary of the method: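 Compound was given intratracheally (200 ul, suspension or dry powder) 15 min–24 hours before a 15 min aerosol of LPS (100 ug/ml). Bronchoalveolar lavage was taken 4 hours after challenge for differential cell counts. Values are % inhibition of neutrophils versus no-compound controls at a given concentration and pretreat time.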

[2] = biological target: T1, Recombinant human p38α (MKK6-activated) (Homo sapiens, UniProt Q16539); assay: Time-resolved fluorescence resonance energy transfer (TR-FRET) kinase assay (standard or low volume); assay type: biochemical; design: key: Compounds are considered active in this assay if they demonstrate a pIC50 of greater than 4.6 up to about a pIC50 of greater than 10.0; settings: MKK6-activated p38α 100 pM, GST-ATF2 400 nM, 120 minutes at room temperature; either assay format
T1 construct: His; made in house
T1 sequence (Q16539 whole entry): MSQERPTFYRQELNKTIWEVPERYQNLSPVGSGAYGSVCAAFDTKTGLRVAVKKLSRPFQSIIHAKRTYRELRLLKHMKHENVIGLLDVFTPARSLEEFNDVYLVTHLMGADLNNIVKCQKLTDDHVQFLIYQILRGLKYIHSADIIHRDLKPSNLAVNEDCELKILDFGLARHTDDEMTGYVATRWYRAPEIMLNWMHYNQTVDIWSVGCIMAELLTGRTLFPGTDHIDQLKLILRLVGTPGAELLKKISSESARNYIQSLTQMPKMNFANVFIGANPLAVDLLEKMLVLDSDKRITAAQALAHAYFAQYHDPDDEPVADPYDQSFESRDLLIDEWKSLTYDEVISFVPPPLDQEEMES
Procedure: It is noted that there are two assay formats shown above for the Fluorescence anisotropy kinase binding assay. The only difference between these two assays is the volume used and the plate type. […] The results described herein may have been performed in either assay format and are not differentiated as to which. […] TR-FRET Assay Time-Resolved Fluorescence Resonance Energy Transfer Kinase Standard Assay Recombinant human p38α was expressed as a His-tagged protein. To activate this protein, 3 μM unactivated p38α was incubated in 200 mM Hepes pH 7.4, 625 mM NaCl, 1 mM DTT with 27 nM active MKK6 (Upstate), 1 mM ATP and 10 mM MgCl2 The activity of the MKK6-activated p38α was assessed using a time-resolved fluorescence resonance energy transfer (TR-FRET) assay. Biotinylated-GST-ATF2 (residues 19-96, 400 nM final), ATP ([…]) and MgCl2 (5 mM final) in assay buffer (40 mM HEPES pH 7.4, 1 mM DTT) were added to wells containing 1 ul of various concentrations of compound or DMSO vehicle (3% final) in NUNC 384 well black plate. The reaction was initiated by the addition of MKK6-activated p38 (100 pM final) to give a total volume of 30 ul. The reaction was incubated for 120 minutes at room temperature, then terminated by the addition of 15 μl of 100 mM EDTA pH 7.4. Detection reagent (15 μl) in buffer (100 mM HEPES pH 7.4, 150 mM NaCl, 0.1% w/v BSA, 1 mM DTT) containing antiphosphothreonine-ATF2-71 polyclonal antibody (Cell Signalling Technology, Beverly Mass., USA) labelled with W-1024 europium chelate (Wallac OY, Turku, Finland), and APC-labelled streptavidin (Prozyme, San Leandro, Calif., USA) was added and the reaction was further incubated for 60 minutes at room temperature. The degree of phosphorylation of GST-ATF2 was measured using a Packard Discovery plate reader (Perkin-Elmer Life Sciences, Pangbourne, UK) as a ratio of specific 665 nm energy transfer signal to reference europium 620 nm signal. Time-Resolved Fluorescence Resonance Energy Transfer Kinase Low Volume Assay Recombinant human p38α was expressed as a His-tagged protein. To activate this protein, 3 μM unactivated p38α was incubated in 200 mM Hepes pH7.4, 625 mM NaCl, 1 mM DTT with 27 nM active MKK6 (Upstate), 1 mM ATP and 10 mM MgCl2 The activity of the MKK6-activated p38α was assessed using a time-resolved fluorescence resonance energy transfer (TR-FRET) assay. Biotinylated-GST-ATF2 (residues 19-96, 400 nM final), ATP (125 μM final) and MgCl2 ([…]) in assay buffer (40 mM HEPES pH 7.4, 1 mM DTT) were added to wells containing 0.1 μl of various concentrations of compound or DMSO vehicle (1.7% final) in Greiner low volume 384 well black plate. The reaction was initiated by the addition of MKK6-activated p38α (100 pM final) to give a total volume of 6 μl. The reaction was incubated for 120 minutes at room temperature, then terminated by the addition of 3 μl of detection reagent in buffer (100 mM HEPES pH 7.4, 150 mM NaCl, 0.1% w/v BSA, 1 mM DTT, 100 mM EDTA) containing antiphosphothreonine-ATF2-71 polyclonal antibody (Cell Signalling Technology, Beverly Mass., USA) labelled with W-1024 europium chelate (Wallac OY, Turku, Finland), and APC-labelled streptavidin (Prozyme, San Leandro, Calif., USA). The reaction was further incubated for 60 minutes at room temperature. The degree of phosphorylation of GST-ATF2 was measured using a BMG Rubystar plate reader (BMG, UK) as a ratio of specific 665 nm energy transfer signal to reference europium 620 nm signal. It is noted that there are two assay formats shown above for the Time-resolved fluorescence resonance energy transfer kinase assay. The only difference between these two assays is the volume used and the plate type. […] The results described herein may have been performed in either assay format and are not differentiated as to which. […] For purposes herein the HTRF assay and the Fluorescence anisotropy kinase binding assay: […]

| SMILES | inhibition of neutrophilia (neutrophil levels in lung lavage relative to no compound controls) [1] | pIC50, reported as active [2] |
| --- | --- | --- |
| Cc1ccc(NC(=O)c2ccsc2)cc1-c1nc(NC2CC(C)(C)NC(C)(C)C2)nc2c1ccc(=O)n2-c1c(F)cccc1F [31(e), N-(3-{8-(2,6-difluorophenyl)-7-oxo-2-[(2,2,6,6-tetramethyl-4-piperidinyl)amino]-7,8-dihydropyrido[2,3-d]pyrimidin-4-yl}-4-methylphenyl)-3-thiophenecarboxamide] | statistically significant inhibition | active |
| CCCNC(=O)c1ccc(C)c(-c2nc(NCCNC)nc3c2ccc(=O)n3-c2c(F)cccc2F)c1 [56(d), 3-(8-(2,6-difluorophenyl)-2-{[2-(methylamino)ethyl]amino}-7-oxo-7,8-dihydropyrido[2,3-d]pyrimidin-4-yl)-4-methyl-N-propylbenzamide] | statistically significant inhibition | active |
| Cc1ccc(C(=O)Nc2nccs2)cc1-c1nc(NCc2ncc[nH]2)nc2c1ccc(=O)n2-c1c(F)cccc1F [79(c), 3-{8-(2,6-difluorophenyl)-2-[(1H-imidazol-2-ylmethyl)amino]-7-oxo-7,8-dihydropyrido[2,3-d]pyrimidin-4-yl}-4-methyl-N-1,3-thiazol-2-ylbenzamide] | statistically significant inhibition | active |
| CNC1CCN(c2nc(-c3cc(C(=O)NC(C)C)ccc3C)c3ccc(=O)n(-c4c(F)cccc4F)c3n2)CC1 [113(b), 3-{8-(2,6-difluorophenyl)-2-[4-(methylamino)-1-piperidinyl]-7-oxo-7,8-dihydropyrido[2,3-d]pyrimidin-4-yl}-4-methyl-N-(1-methylethyl)benzamide] | statistically nonsignificant inhibition | active |
| Cc1ccc(C(=O)NC(C)C)cc1-c1nc(N2CCC(N3CCC(C)CC3)CC2)nc2c1ccc(=O)n2-c1c(F)cccc1F [163(c), 3-[8-(2,6-difluorophenyl)-2-(4-methyl-1,4′-bipiperidin-1′-yl)-7-oxo-7,8-dihydropyrido[2,3-d]pyrimidin-4-yl]-4-methyl-N-(1-methylethyl)benzamide] | statistically nonsignificant inhibition | active |
| CCN(CC)CCCNc1nc(-c2cccc(C(=O)O)c2)c2ccc(=O)n(-c3c(F)cccc3F)c2n1 [193(a), 3-[2-{[3-(diethylamino)propyl]amino}-8-(2,6-difluorophenyl)-7-oxo-7,8-dihydropyrido[2,3-d]pyrimidin-4-yl]benzoic acid] |  | active |
| CCN(CC)CCCNc1nc(-c2cccc(C(=O)NC)c2)c2ccc(=O)n(-c3c(F)cccc3F)c2n1 [193(b), 3-[2-{[3-(diethylamino)propyl]amino}-8-(2,6-difluorophenyl)-7-oxo-7,8-dihydropyrido[2,3-d]pyrimidin-4-yl]-N-methylbenzamide] |  | active |
| Cc1ccc(NC(=O)c2cccs2)cc1-c1nc(NC2CC(C)(C)NC(C)(C)C2)nc2c1ccc(=O)n2-c1c(F)cccc1F [Example 9, N-(3-{8-(2,6-difluorophenyl)-7-oxo-2-[(2,2,6,6-tetramethyl-4-piperidinyl)amino]-7,8-dihydropyrido[2,3-d]pyrimidin-4-yl}-4-methylphenyl)-2-thiophenecarboxamide] |  | active |
| Cc1ccc(NC(=O)c2cccs2)cc1-c1nc(NCc2ncc[nH]2)nc2c1ccc(=O)n2-c1c(F)cccc1F [Example 10, N-(3-{8-(2,6-difluorophenyl)-2-[(1H-imidazol-2-ylmethyl)amino]-7-oxo-7,8-dihydropyrido[2,3-d]pyrimidin-4-yl}-4-methylphenyl)-2-thiophenecarboxamide] |  | active |
| Cc1ccc(NC(=O)c2ccc(Cl)nc2)cc1-c1nc(N2CCC(N)CC2)nc2c1ccc(=O)n2-c1c(F)cccc1F [Example 15, N-{3-[2-(4-amino-1-piperidinyl)-8-(2,6-difluorophenyl)-7-oxo-7,8-dihydropyrido[2,3-d]pyrimidin-4-yl]-4-methylphenyl}-6-chloro-3-pyridinecarboxamide] |  | active |
| Cc1ccc(C(=O)NC(C)C)cc1-c1nc(N(C)CCCN(C)C)nc2c1ccc(=O)n2-c1c(F)cccc1F [Example 34, 3-{8-(2,6-difluorophenyl)-2-[[3-(dimethylamino)propyl](methyl)amino]-7-oxo-7,8-dihydropyrido[2,3-d]pyrimidin-4-yl}-4-methyl-N-(1-methylethyl)benzamide] | statistically significant inhibition | active |
| Cc1ccc(C(=O)NC2CC2)cc1-c1nc(NC(CO)CO)nc2c1ccc(=O)n2-c1c(F)cccc1F [Example 36, N-cyclopropyl-3-(8-(2,6-difluorophenyl)-2-{[2-hydroxy-1-(hydroxymethyl)ethyl]-amino}-7-oxo-7,8-dihydropyrido[2,3-d]pyrimidin-4-yl)-4-methylbenzamide] |  | active |
| CNCCNc1nc(-c2cc(C(=O)NC(C)C)ccc2C)c2ccc(=O)n(-c3c(F)cccc3F)c2n1 [Example 57, 3-(8-(2,6-difluorophenyl)-2-{[2-(methylamino)ethyl]amino}-7-oxo-7,8-dihydropyrido[2,3-d]pyrimidin-4-yl)-4-methyl-N-(1-methylethyl)benzamide] | statistically significant inhibition | active |
| Cc1ccc(C(=O)Nc2ccc(F)cc2)cc1-c1nc(NC2CC(C)(C)NC(C)(C)C2)nc2c1ccc(=O)n2-c1c(F)cccc1F [Example 66, 3-{8-(2,6-difluorophenyl)-7-oxo-2-[(2,2,6,6-tetramethyl-4-piperidinyl)amino]-7,8-dihydropyrido[2,3-d]pyrimidin-4-yl}-N-(4-fluorophenyl)-4-methylbenzamide] | statistically significant inhibition | active |
| Cc1ccc(C(=O)NC(C)C)cc1-c1nc(NCc2ncc[nH]2)nc2c1ccc(=O)n2-c1c(F)cccc1F [Example 74, 3-{8-(2,6-difluorophenyl)-2-[(1H-imidazol-2-ylmethyl)amino]-7-oxo-7,8-dihydropyrido[2,3-d]pyrimidin-4-yl}-4-methyl-N-(1-methylethyl)benzamide] |  | active |
| Cc1ccc(C(=O)Nc2ccc(F)cc2)cc1-c1nc(NCc2ncc[nH]2)nc2c1ccc(=O)n2-c1c(F)cccc1F [Example 78] | statistically significant inhibition | active |
